{"source": "patent US8680148B2", "about": "“Metallo-desferrioxamine complexes and their use in the treatment of bacterial infections” (priority 2006, dated 2014)", "key": {"[1]": {"settings": "divalent ions; cited from earlier work"}, "[2]": {"test_system": "Pseudomonas aeruginosa biofilm", "test": "Static biofilm formation in microtiter dish wells (crystal violet binding)", "assay_type": "cell-based", "settings": "18 h", "protocol": "(§1) Bacterial strains and culture conditions. Pseudomonas aeruginosa PAO1 or PAO1 derivatives were used for all experiments except where noted. For flow cell biofilm experiments, strains containing the GFP expression vector pMRP9-1 were used. Both flow cell and disc reactor biofilms were grown in 1% Tryptic Soy Broth (TSB) (Becton Dickinson, Sparks, Md.) as were planktonic cultures. All cultures were incubated at 37° C. unless otherwise indicated. For the static biofilm formation assay we used M63 minimal medium supplemented with glucose (0.2%), arginine (0.4%) and MgSO4 (1 mM).\nPseudomonas aeruginosa biofilms were studied in three different ways. To evaluate gallium-desferrioxamine as a biofilm-blocking agent, the biofilm formation under static growth conditions was measured in microtiter dish wells. Biofilms were grown under static conditions in 96-well microtiter dishes for 18 h at 37° C. in M63 medium with or without added agents as indicated. Attached biomass was stained with crystal violet and the degree of crystal violet staining was measured.\nFIG. 2 illustrates the biofilm growth of Pseudomonas aeruginosa cells in polyvinylchloride microtiter dish wells after treatment for 18 hours with desferrioxamine, Ga, gentamicin, or desferrioxamine-Ga. The concentrations used for each compound were 1 μM for DFO, Ga and DFO-Ga, and 0.1 μg/mL for Gm. Attached biofilm biomass was determined by measuring crystal violet binding."}, "[3]": {"test_system": "Pseudomonas aeruginosa", "test": "Minimal inhibitory concentration on planktonic Pseudomonas aeruginosa, 96-well plates", "assay_type": "cell-based", "settings": "low iron medium", "excerpt": "The effect of gallium-desferrioxamine on planktonic Pseudomonas aeruginosa was first examined in a low iron medium. […] When in the stationary phase, Pseudomonas aeruginosa is not effectively killed by antibiotics.\nas §1\nThe minimal inhibitory concentrations (MICs) of various agents were determined by using 96-well plates. Each well contained 100 μl of 1% TSB plus test compound. The inoculum was 5×10^5 Pseudomonas aeruginosa cells per well. To test the effect of agents on survival of stationary phase cells, cultures inoculated with 10^5 cells per ml and incubated for 18 h at 37° C. with aeration were used. The 18-h cultures were centrifuged. The pelleted cells were washed twice and suspended in a volume of fresh medium equal to the original culture volume. […] Viability was determined by plating dilutions on LB agar."}, "[4]": {"settings": "trivalent aluminium ions; cited from earlier work"}, "[5]": {"settings": "ferric iron; cited from earlier work"}, "[6]": {"test_system": "Pseudomonas aeruginosa biofilm", "test": "Flow cell biofilms, confocal microscopy (GFP, propidium iodide)", "assay_type": "cell-based", "settings": "for killing of cells in six-day old biofilm (propidium iodide staining): 24 h", "protocol": "as §1\nThe development of biofilms under a continuous flow of medium was followed in microscope observation chambers. To visualize biofilms grown under a continuous flow of medium, flow cells and confocal microscopy with an incubation temperature of 25° C. were used. An agent was added to the medium at the beginning of an experiment to determine whether the agent prevented biofilm formation. To determine the affect of an agent on mature biofilms, the biofilm was allowed to grow for six days prior to addition of the test compound. To discriminate live and dead cells, propidium iodide (PI, 30 μM, Sigma Chemical Co., St. Louis, Mo.) was used.\nFIG. 3 compares 3D-reconstructed confocal microscope images of six-day old biofilms of Pseudomonas aeruginosa cells expressing GFP treated for 24 hours with gentamicin (0.1 μg/mL), desferrioxamine (1 μM), gallium (1 μM), and gallium-desferrioxamine (1 μM).\nFIGS. 4-8 compare the survival of P. aeruginosa in a six-day old biofilms stained with propidium iodide under with different treatment."}, "[7]": {"test_system": "Staphylococcus aureus (MRSA strain) biofilm", "test": "Spinning disc reactor biofilms of MRSA S. aureus", "assay_type": "cell-based", "settings": "1 mM, 24 h", "protocol": "The effect of gallium-desferrioxamine against the drug resistant bacterial was investigated. The efficacy of DFO-Ga against common biofilm pathogens Staphylococcus aureus (MRSA strain) and Escherichia coli was examined. Biofilms were grown using the spinning disc reactor system as above. Spinning disc reactor biofilms with E. coli or MRSA S. aureus were treated for 24 h. The concentration of DFO-Ga in both treatments was (1 mM). In the E. coli treatment, the concentration of Gm was 10 μg/ml and for the combination of DFO-Ga (1 mM) and Gm (10 μg/ml).\nAs shown FIG. 12B, DFO-Ga was able to reduce the viable Staphylococcus aureus biofilm bacteria by approximately 3 log units."}, "[8]": {"test_system": "stationary phase Pseudomonas aeruginosa cells", "test": "Survival of stationary phase Pseudomonas aeruginosa cells (plating on LB agar)", "assay_type": "cell-based", "settings": "24 h", "protocol": "The minimal inhibitory concentrations (MICs) of various agents were determined by using 96-well plates. Each well contained 100 μl of 1% TSB plus test compound. The inoculum was 5×10^5 Pseudomonas aeruginosa cells per well. To test the effect of agents on survival of stationary phase cells, cultures inoculated with 10^5 cells per ml and incubated for 18 h at 37° C. with aeration were used. The 18-h cultures were centrifuged. The pelleted cells were washed twice and suspended in a volume of fresh medium equal to the original culture volume. The cells were incubated at 37° C. for an additional 2 h with shaking and then exposed to the test compounds at the indicated concentrations for 24 h. Viability was determined by plating dilutions on LB agar. FIG. 1 illustrates the survival of stationary phase Pseudomonas aeruginosa cells treated for 24 hours with desferrioxamine (DFO), gentamicin (Gm), gallium (Ga), gallium-desferrioxamine (DFO-Ga), DFO and Gm, Ga and Gm, and DFO-Ga and Gm. The concentrations used for each compound were 0.1 mM (shaded) or 1 mM (dark) for DFO, Ga or DFO-Ga and […] for Gm. […] Because gallium-desferrioxamine and gentamicin exert their antimicrobial effects via different mechanisms, the two agents were combined and the combined treatment results in a six-log reduction in viable cells."}, "[9]": {"test_system": "pvdA-GFP iron starvation promoter fusion", "test": "Iron starvation reporter (pvdA-GFP) fluorescence in PAO1", "assay_type": "cell-based, Pseudomonas aeruginosa", "settings": "1 mM, 1 h at 37° C.", "protocol": "To study the effect of DFO-Ga on iron regulation in the cell, a P. aeruginosa PAO1 strain-carrying GFP fused to an iron starvation promoter (pvdA-GFP) was constructed. The promoter is induced under iron limitation. Free living PAO1 carrying pvdA-GFP fusion, i.e., an iron starvation reporter fusion, 10^9 cell/ml in 1% TSB were exposed to […] Ga (1 mM), DFO (1 mM), or DFO-Ga (1 mM) for 1 h at 37° C."}, "[10]": {"test_system": "P. aeruginosa clinical isolates biofilms", "test": "Spinning disc reactor biofilms of 15 clinical isolates", "assay_type": "cell-based, Pseudomonas aeruginosa", "settings": "24 h", "protocol": "To verify that the sensitivities observed with laboratory strain of P. aeruginosa (PAO1) would hold with other clinical isolates of the bacterium, 15 clinical isolates of the same bacterium obtained from CF, eye and wound infected patients were screened. The group of isolates tested included mucoid strains, and strains with a variety of drug resistance profiles. The spinning-disc biofilm reactor system was utilized. In this system biofilms are grown under a flow of medium and at high shear forces. After 24 h in a flow of medium the polycarbonate chips with attached biofilm bacteria were removed from the spinning disc and washed 3 times in PBS. All incubations for spinning disc experiments were at 37° C. These biofilms were then exposed to Gm (50 μg/ml), DFO-Ga (1 mM) or a combination of gallium-desferrioxamine […] in water for 24 h. To estimate the number of remaining attached biofilm cells, we placed the discs in 1 ml PBS and dispersed the cells by using a tissue homogenizer (Brinkman Homogenizer, Westbury, N.Y.). Viable cell numbers were determined by plating on LB agar. […]"}, "[11]": {"test_system": "Pseudomonas aeruginosa biofilm", "test": "Spinning disc reactor biofilms, viable cell counts", "assay_type": "cell-based", "settings": "24 h", "protocol": "A spinning disc reactor as a third method was used to study biofilms. The biofilms grown under different conditions were tested and the activity of gallium-desferrioxamine against biofilms grown in a spinning disc reactor under continuous flow with high shear was examined. In this system biofilms are grown under a flow of medium and at high shear forces. After 24 h in a flow of medium, the polycarbonate chips with attached biofilm bacteria were removed from the spinning disc and washed 3 times in PBS. All incubations for spinning disc experiments were at 37° C. These biofilms were then exposed to the indicated agents in water for 24 h. Cells that detached from the biofilm during the treatment were enumerated by plating on LB agar. To estimate the number of remaining attached biofilm cells, the discs were placed in 1 ml PBS and the cells were dispersed by using a tissue homogenizer (Brinkman Homogenizer, Westbury, N.Y.). Viable cell numbers were determined by plating on LB agar. […] Furthermore, when gallium-desferrioxamine and gentamicin are used together, viability is reduced by almost 6 logs, leaving only a few viable cells."}, "[12]": {"settings": "systemic treatment, ischemia and reperfusion; cited from earlier work"}, "[13]": {"test_system": "Pseudomonas aeruginosa", "test": "Rabbit cornea infection (keratitis) with P. aeruginosa, topical treatment", "assay_type": "in vivo", "settings": "0.5% gentamicin eye drops"}, "[14]": {"settings": "topical application, alkali burn; cited from earlier work"}}, "note": "Like-named read-outs stand apart in the source and are kept apart here.", "data": [{"compound": "CC(=O)N(O)CCCCCNC(=O)CCC(=O)N(O)CCCCCNC(=O)CCC(=O)N(O)CCCCCN", "note": "[desferrioxamine]", "values": [{"measurement": "complex formation constant", "setting": "[1]", "result": "≤ 10^14"}, {"measurement": "biofilm formation", "setting": "[2]; 1 μM", "result": "does not affect biofilm formation"}, {"measurement": "growth inhibition (highest concentration without inhibition)", "setting": "[3]", "result": "> 1", "unit": "mM"}, {"measurement": "complex formation constant", "setting": "[4]", "result": "10^25"}, {"measurement": "complex formation constant", "setting": "[5]", "result": "10^31"}, {"measurement": "killing of cells in six-day old biofilm (propidium iodide staining)", "setting": "[6]; 1 mM", "result": "does not appear to kill cells in mushroom-like structures"}]}, {"compound": "CC(=O)N([O-])CCCCCNC(=O)CCC(=O)N([O-])CCCCCNC(=O)CCC(=O)N([O-])CCCCCN.[Ga+3]", "note": "[gallium-desferrioxamine]", "values": [{"measurement": "reduction of viable Staphylococcus aureus biofilm bacteria", "setting": "[7]", "result": "approximately 3 log units"}, {"measurement": "killing relative to gentamicin", "setting": "[8]; 1 mM, versus gentamicin 10 μg per ml", "result": "10-100 times"}, {"measurement": "induction in relative fluorescence compared to non-treated controls", "setting": "[9]", "result": "four"}, {"measurement": "biofilm formation", "setting": "[2]; 1 μM", "result": "effectively blocked"}, {"measurement": "log killing", "setting": "[10]; DFO-Ga 1 mM", "result": 3.02, "unit": "log"}, {"measurement": "decrease in cell counts", "setting": "[11]; 1 mM", "result": "3-4 log"}, {"measurement": "minimal inhibitory concentration (MIC)", "setting": "[3]", "result": 32, "unit": "µM"}, {"measurement": "biofilm formation under continuous flow", "setting": "[6]; 1 μM, flow cell", "result": "completely blocks biofilm formation"}, {"measurement": "killing of cells in six-day old biofilm (propidium iodide staining)", "setting": "[6]; 1 mM", "result": "causes death of cells throughout the mushroom-like structures"}, {"measurement": "damage to the retina", "setting": "[12]", "result": "reduced damage to the retina"}]}, {"compound": "[Ga]", "note": "[gallium]", "values": [{"measurement": "reduction in fluorescence", "setting": "[9]", "result": "two"}, {"measurement": "biofilm formation", "setting": "[2]; 1 μM", "result": "effectively blocked"}, {"measurement": "killing of cells in six-day old biofilm (propidium iodide staining)", "setting": "[6]; 1 mM", "result": "killing of cells in the outer regions of the biofilm only"}]}, {"compound": "gentamicin", "values": [{"measurement": "scarring", "setting": "[13]", "result": "significant scarring persists"}, {"measurement": "time to resolution of the infection", "setting": "[13]", "result": "≤ 120", "unit": "h"}, {"measurement": "reduction of viability", "setting": "[8]; gentamicin 10 μg per ml", "result": "three"}, {"measurement": "biofilm formation", "setting": "[2]; 0.1 μg per ml", "result": "does not affect biofilm formation"}, {"measurement": "log killing", "setting": "[10]; Gm 50 μg/ml", "result": 0.95, "unit": "log"}, {"measurement": "decrease in cell counts", "setting": "[11]; 50 μg/mL", "result": 2, "unit": "log"}, {"measurement": "killing of cells in six-day old biofilm (propidium iodide staining)", "setting": "[6]; 50 μg/ml", "result": "killing of cells in the outer regions of the biofilm only"}]}, {"compound": "zinc-desferrioxamine", "values": [{"measurement": "corneal damage", "setting": "[14]", "result": "reduced corneal damage"}, {"measurement": "damage to the retina", "setting": "[12]", "result": "reduced damage to the retina"}]}]}
